Assay results reported in PMC6917776, “Discovery of a chemical probe for PRDM9” (Nature Communications, 2019).
Like-named read-outs stand apart in the source and are kept apart here.

Experiment: CelltiterGlo viability cell assay
Type: cell-based
Conditions: human
Procedure: Supplementary Figure 13. […] Viability of
(a) Multiple Myeloma lines and (b) Breast Cancer cell lines following 3 or 6 days treatment with […]
manufacturer’s instructions as described in the Supplementary methods. Data are normalized to DMSO control. N=3 biological replicates, +/- SEM. Source data are provided as a Source Data […]
CelltiterGlo viability cell assay
Cells were seeded in 96 well plates at per-well densities of 10000 (MDA-MB436, ATCC-HTB130), 15000 (8226, kind gift from Rodger Tiedemann, Princess Margaret Cancer Centre), […]
kind gift from Rodger Tiedemann, Princess Margaret Cancer Centre) and 50000 (CAL851, kind gift from Mathieu Lupien, Princess Margaret Cancer Centre) and were treated at increasing concentrations of compounds ranging from 0.01 μM to 30 μM and assessed for proliferation using CelltiterGlo (Promega) following manufacturer’s instructions, as readout on days 3 and 6 as indicated. All cell lines were mycoplasma negative, as determined by MycoAlert™ Mycoplasma Detection Kit(Lonza). […]

[1] = CAL851 breast cancer cells, CAL851, 3 day, read-out: viability Average
[2] = CAL851 breast cancer cells, CAL851, 3 day, read-out: viability Replicate 1
[3] = CAL851 breast cancer cells, CAL851, 3 day, read-out: viability Replicate 2
[4] = CAL851 breast cancer cells, CAL851, 3 day, read-out: viability Replicate 3
[5] = CAL851 breast cancer cells, CAL851, 6 day, read-out: viability Average
[6] = CAL851 breast cancer cells, CAL851, 6 day, read-out: viability Replicate 1
[7] = CAL851 breast cancer cells, CAL851, 6 day, read-out: viability Replicate 2
[8] = CAL851 breast cancer cells, CAL851, 6 day, read-out: viability Replicate 3
[9] = CAL851 cells, CAL851, 3 day, read-out: viability Replicate 1
[10] = CAL851 cells, CAL851, 3 day, read-out: viability Replicate 2
[11] = HCC1143 breast cancer cells, HCC1143, 3 day, read-out: viability Average
[12] = HCC1143 breast cancer cells, HCC1143, 3 day, read-out: viability Replicate 1
[13] = HCC1143 breast cancer cells, HCC1143, 3 day, read-out: viability Replicate 2
[14] = HCC1143 breast cancer cells, HCC1143, 3 day, read-out: viability Replicate 3

COc1cc(OC)cc(-c2noc(N3CCN(C)C4(CCN(c5ccnc(C)c5)CC4)C3)n2)c1 [MRK-740]
viability at 3 day, 0.01 µM [1]: 95.7% | viability at 3 day, 0.01 µM [2]: 91.6% | viability at 3 day, 0.01 µM [3]: 94.6% | viability at 3 day, 0.01 µM [4]: 101% | viability at 3 day, 0.03 µM [1]: 94.4% | viability at 3 day, 0.03 µM [2]: 93.2% | viability at 3 day, 0.03 µM [3]: 92.2% | viability at 3 day, 0.03 µM [4]: 97.9% | viability at 3 day, 0.3 µM [1]: 98.9% | viability at 3 day, 0.3 µM [4]: 104% | viability at 3 day, 1 µM [1]: 98% | viability at 3 day, 1 µM [2]: 88.2% | viability at 3 day, 1 µM [3]: 93.7% | viability at 3 day, 1 µM [4]: 112% | viability at 3 day, 3 µM [1]: 88% | viability at 3 day, 3 µM [2]: 88.9% | viability at 3 day, 3 µM [3]: 78.6% | viability at 3 day, 3 µM [4]: 96.5% | viability at 3 day, 9.5 µM [1]: 72% | viability at 3 day, 9.5 µM [2]: 69.7% | viability at 3 day, 9.5 µM [3]: 68.9% | viability at 3 day, 9.5 µM [4]: 77.4% | viability at 3 day, 30 µM [1]: 21.2% | viability at 3 day, 30 µM [2]: 18.4% | viability at 3 day, 30 µM [3]: 24.5% | viability at 3 day, 30 µM [4]: 20.7% | viability at 6 day, 0.01 µM [5]: 113% | viability at 6 day, 0.01 µM [6]: 109% | viability at 6 day, 0.01 µM [7]: 118% | viability at 6 day, 0.01 µM [8]: 113% | viability at 6 day, 0.03 µM [5]: 114% | viability at 6 day, 0.03 µM [6]: 103% | viability at 6 day, 0.03 µM [7]: 114% | viability at 6 day, 0.03 µM [8]: 126% | viability at 6 day, 0.1 µM [5]: 129% | viability at 6 day, 0.1 µM [6]: 116% | viability at 6 day, 0.1 µM [7]: 126% | viability at 6 day, 0.1 µM [8]: 145% | viability at 6 day, 0.3 µM [5]: 118% | viability at 6 day, 0.3 µM [6]: 121% | viability at 6 day, 0.3 µM [7]: 117% | viability at 6 day, 0.3 µM [8]: 115% | viability at 6 day, 1 µM [5]: 117% | viability at 6 day, 1 µM [6]: 109% | viability at 6 day, 1 µM [7]: 108% | viability at 6 day, 1 µM [8]: 134% | viability at 6 day, 3 µM [5]: 100% | viability at 6 day, 3 µM [6]: 93.2% | viability at 6 day, 3 µM [7]: 104% | viability at 6 day, 3 µM [8]: 104% | viability at 6 day, 9.5 µM [5]: 73.1% | viability at 6 day, 9.5 µM [6]: 59.9% | viability at 6 day, 9.5 µM [7]: 75.6% | viability at 6 day, 9.5 µM [8]: 83.9% | viability at 6 day, 30 µM [5]: 14.9% | viability at 6 day, 30 µM [6]: 22.8% | viability at 6 day, 30 µM [7]: 11.9% | viability at 6 day, 30 µM [8]: 10% | viability at 3 day, 0.1 µM (CAL851 cells, CAL851, 3 day, read-out: viability Average): 99.9% | viability at 3 day, 0.1 µM [9]: 97.5% | viability at 3 day, 0.1 µM [10]: 91.8% | viability at 3 day, 0.1 µM (CAL851 cells, CAL851, 3 day, read-out: viability Replicate 3): 111% | viability at 3 day, 0.3 µM [9]: 94.7% | viability at 3 day, 0.3 µM [10]: 97.8% | viability at 3 day, 0.01 µM [11]: 96.2% | viability at 3 day, 0.01 µM [12]: 100% | viability at 3 day, 0.01 µM [13]: 94.8% | viability at 3 day, 0.01 µM [14]: 93.8% | viability at 3 day, 0.03 µM [11]: 94.8% | viability at 3 day, 0.03 µM [12]: 92.9% | viability at 3 day, 0.03 µM [13]: 94.1% | viability at 3 day, 0.03 µM [14]: 97.3% | viability at 3 day, 0.3 µM [11]: 98.1% | viability at 3 day, 0.3 µM [12]: 99.7% | viability at 3 day, 0.3 µM [13]: 97.7% | viability at 3 day, 0.3 µM [14]: 96.9% | viability at 3 day, 1 µM [11]: 97.8% | viability at 3 day, 1 µM [12]: 101% | viability at 3 day, 1 µM [13]: 93.9% | viability at 3 day, 1 µM [14]: 98.8% | viability at 3 day, 3 µM [11]: 92.9% | viability at 3 day, 3 µM [12]: 94.7% | viability at 3 day, 3 µM [13]: 91% | viability at 3 day, 3 µM [14]: 93% | viability at 3 day, 9.5 µM [11]: 71.7% | viability at 3 day, 9.5 µM [12]: 73.8% | viability at 3 day, 9.5 µM [13]: 69.4% | viability at 3 day, 9.5 µM [14]: 72% | viability at 3 day, 30 µM [11]: 25.7% | viability at 3 day, 30 µM [12]: 27.4% | viability at 3 day, 30 µM [13]: 27.1% | viability at 3 day, 30 µM [14]: 22.6% | viability at 6 day, 0.03 µM (HCC1143 breast cancer cells, HCC1143, 6 day, read-out: viability Average): 101% | viability at 6 day, 0.03 µM (HCC1143 breast cancer cells, HCC1143, 6 day, read-out: viability Replicate 1): 96.8% | viability at 6 day, 0.03 µM (HCC1143 breast cancer cells, HCC1143, 6 day, read-out: viability Replicate 2): 101%
